Like-named read-outs stand apart in the source and are kept apart here.
What was measured:
Assay type in all cases: binding
[1] = molecular target: T1, HeLa cell extract proteins (Homo sapiens, UniProt P00441)
T1 construct: endogenous in cells; host or cells: HeLa cell extract

[2] = molecular target: T2, HeLa cell extract proteins (Homo sapiens, UniProt P0DMV8)
T2 construct: endogenous in cells; host or cells: HeLa cell extract

[3] = molecular target: T3, HeLa cell extract proteins (Homo sapiens, UniProt P35232)
T3 construct: endogenous in cells; host or cells: HeLa cell extract
T3 sequence (P35232 1-272): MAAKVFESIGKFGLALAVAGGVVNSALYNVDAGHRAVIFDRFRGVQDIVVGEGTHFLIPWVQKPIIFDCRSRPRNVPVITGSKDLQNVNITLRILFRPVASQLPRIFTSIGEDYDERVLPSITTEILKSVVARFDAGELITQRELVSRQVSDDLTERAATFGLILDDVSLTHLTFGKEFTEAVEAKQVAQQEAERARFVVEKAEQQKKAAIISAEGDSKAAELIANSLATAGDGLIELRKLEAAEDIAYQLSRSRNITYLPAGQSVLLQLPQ

[4] = molecular target: T4, HeLa cell extract proteins (Homo sapiens, UniProt P41091)
T4 construct: endogenous in cells; host or cells: HeLa cell extract

[5] = molecular target: T5, HeLa cell extract proteins (Homo sapiens, UniProt P42704)
T5 construct: endogenous in cells; host or cells: HeLa cell extract

[6] = molecular target: T6, HeLa cell extract proteins (Homo sapiens, UniProt Q06830)
T6 construct: endogenous in cells; host or cells: HeLa cell extract
T6 sequence (Q06830 1-199): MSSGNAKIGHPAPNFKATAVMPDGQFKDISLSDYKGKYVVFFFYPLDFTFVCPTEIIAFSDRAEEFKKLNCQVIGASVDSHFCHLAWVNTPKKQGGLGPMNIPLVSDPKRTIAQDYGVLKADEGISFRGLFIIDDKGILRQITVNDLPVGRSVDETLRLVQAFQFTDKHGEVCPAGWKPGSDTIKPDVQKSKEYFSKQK

[7] = molecular target: T7, HeLa cell extract proteins (Homo sapiens, UniProt Q07021)
T7 construct: endogenous in cells; host or cells: HeLa cell extract
T7 sequence (Q07021 74-282): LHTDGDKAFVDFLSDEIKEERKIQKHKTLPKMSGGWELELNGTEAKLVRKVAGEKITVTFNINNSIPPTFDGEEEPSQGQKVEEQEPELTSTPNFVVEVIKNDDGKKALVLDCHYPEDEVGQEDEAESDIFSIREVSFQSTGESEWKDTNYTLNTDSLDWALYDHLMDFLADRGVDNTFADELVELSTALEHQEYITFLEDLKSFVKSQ

[8] = molecular target: T8, HeLa cell extract proteins (Homo sapiens, UniProt Q9BW27)
T8 construct: endogenous in cells; host or cells: HeLa cell extract
T8 sequence (Q9BW27 1-656): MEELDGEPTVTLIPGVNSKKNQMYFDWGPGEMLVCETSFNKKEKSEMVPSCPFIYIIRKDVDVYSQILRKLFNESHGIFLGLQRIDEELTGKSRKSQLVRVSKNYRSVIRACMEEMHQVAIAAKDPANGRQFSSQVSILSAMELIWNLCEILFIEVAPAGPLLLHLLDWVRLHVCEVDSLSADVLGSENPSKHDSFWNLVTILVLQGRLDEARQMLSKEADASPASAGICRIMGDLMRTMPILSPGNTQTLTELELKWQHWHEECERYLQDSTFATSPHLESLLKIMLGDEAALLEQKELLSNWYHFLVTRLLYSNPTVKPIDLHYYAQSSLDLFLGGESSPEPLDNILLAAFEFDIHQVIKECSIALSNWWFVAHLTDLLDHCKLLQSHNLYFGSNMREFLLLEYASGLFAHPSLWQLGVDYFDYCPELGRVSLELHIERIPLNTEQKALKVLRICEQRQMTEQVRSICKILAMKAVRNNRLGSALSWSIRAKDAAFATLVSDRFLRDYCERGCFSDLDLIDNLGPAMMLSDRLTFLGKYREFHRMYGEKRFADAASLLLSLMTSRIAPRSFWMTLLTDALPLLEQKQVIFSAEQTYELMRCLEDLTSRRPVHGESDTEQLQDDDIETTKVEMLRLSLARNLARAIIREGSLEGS

[9] = molecular target: T9, HeLa cell extract proteins (Homo sapiens, UniProt Q9Y678)
T9 construct: endogenous in cells; host or cells: HeLa cell extract
T9 sequence (Q9Y678 1-874): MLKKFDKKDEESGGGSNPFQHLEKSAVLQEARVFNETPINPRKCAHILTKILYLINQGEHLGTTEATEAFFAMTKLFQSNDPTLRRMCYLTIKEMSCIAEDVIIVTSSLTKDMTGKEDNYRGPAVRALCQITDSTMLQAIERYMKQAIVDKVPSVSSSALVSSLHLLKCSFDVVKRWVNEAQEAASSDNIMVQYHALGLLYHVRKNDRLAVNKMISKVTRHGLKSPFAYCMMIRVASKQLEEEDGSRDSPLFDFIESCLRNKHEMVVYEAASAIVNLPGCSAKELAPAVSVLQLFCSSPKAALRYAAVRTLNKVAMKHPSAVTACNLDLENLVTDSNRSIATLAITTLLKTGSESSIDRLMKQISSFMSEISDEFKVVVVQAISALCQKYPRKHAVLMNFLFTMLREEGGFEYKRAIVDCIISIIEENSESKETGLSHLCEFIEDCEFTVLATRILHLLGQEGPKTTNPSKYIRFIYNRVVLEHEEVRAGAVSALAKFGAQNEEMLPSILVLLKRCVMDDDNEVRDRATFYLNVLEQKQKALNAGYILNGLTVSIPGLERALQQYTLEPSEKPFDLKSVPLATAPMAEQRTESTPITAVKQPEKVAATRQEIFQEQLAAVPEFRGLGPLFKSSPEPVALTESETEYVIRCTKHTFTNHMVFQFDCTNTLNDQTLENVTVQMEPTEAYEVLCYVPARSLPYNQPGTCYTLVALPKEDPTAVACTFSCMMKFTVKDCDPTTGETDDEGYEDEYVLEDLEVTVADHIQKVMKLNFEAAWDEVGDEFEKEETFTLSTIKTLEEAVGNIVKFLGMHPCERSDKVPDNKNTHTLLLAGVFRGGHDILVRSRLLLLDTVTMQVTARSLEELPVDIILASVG

T4 sequence (P41091 whole entry): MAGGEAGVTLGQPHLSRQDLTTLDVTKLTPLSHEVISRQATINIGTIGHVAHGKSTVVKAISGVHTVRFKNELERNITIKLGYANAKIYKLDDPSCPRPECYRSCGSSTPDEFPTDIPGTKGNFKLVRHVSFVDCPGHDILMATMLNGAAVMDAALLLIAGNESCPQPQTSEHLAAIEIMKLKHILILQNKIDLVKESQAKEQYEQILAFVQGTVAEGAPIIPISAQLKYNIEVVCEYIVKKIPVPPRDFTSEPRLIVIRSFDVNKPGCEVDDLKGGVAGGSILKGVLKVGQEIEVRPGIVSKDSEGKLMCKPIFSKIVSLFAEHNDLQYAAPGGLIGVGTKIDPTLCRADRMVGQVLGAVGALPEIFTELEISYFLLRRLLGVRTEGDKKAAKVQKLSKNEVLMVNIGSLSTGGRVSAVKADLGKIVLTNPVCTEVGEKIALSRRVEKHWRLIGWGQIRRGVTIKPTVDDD
T2 sequence (P0DMV8 whole entry): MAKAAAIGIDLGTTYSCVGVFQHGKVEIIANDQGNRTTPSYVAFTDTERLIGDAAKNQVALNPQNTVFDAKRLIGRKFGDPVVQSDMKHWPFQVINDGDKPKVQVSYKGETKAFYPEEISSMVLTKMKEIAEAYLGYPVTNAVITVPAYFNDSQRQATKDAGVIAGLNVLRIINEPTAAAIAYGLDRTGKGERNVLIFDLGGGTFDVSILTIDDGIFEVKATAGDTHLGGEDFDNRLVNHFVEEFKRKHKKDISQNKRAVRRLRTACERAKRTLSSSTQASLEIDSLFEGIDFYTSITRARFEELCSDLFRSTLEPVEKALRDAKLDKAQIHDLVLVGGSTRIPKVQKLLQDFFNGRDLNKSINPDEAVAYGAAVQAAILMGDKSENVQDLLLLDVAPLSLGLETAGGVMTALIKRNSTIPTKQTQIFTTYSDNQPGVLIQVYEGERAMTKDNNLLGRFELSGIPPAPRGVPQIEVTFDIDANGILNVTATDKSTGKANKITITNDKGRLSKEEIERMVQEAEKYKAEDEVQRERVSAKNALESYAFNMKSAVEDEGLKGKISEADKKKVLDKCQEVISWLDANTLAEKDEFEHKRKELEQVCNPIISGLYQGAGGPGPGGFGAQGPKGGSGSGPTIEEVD
T1 sequence (P00441 whole entry): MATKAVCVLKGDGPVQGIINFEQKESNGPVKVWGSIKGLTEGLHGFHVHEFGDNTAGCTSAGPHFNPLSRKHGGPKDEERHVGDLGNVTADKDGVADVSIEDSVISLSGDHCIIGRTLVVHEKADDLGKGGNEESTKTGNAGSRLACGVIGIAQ

| Compound | fold changes relative to vehicle control ([1]; protein SOD1, HeLa) | fold changes relative to vehicle control ([2]; protein HSPA1A, HeLa) | fold changes relative to vehicle control ([3]; protein PHB, HeLa) | fold changes relative to vehicle control ([4]; protein EIF2S3, HeLa) | fold changes relative to vehicle control ([5]; protein LRPPRC, HeLa) | fold changes relative to vehicle control ([6]; protein PRDX1, HeLa) | fold changes relative to vehicle control ([7]; protein C1QBP, HeLa) | fold changes relative to vehicle control ([8]; captured protein NUP85, HeLa) | fold changes relative to vehicle control ([9]; protein COPG, HeLa) | fold changes relative to vehicle control ([1]; HeLa, protein SOD1) | fold changes relative to vehicle control ([2]; HeLa, captured protein HSPA1A) | fold changes relative to vehicle control ([3]; HeLa, protein PHB) | fold changes relative to vehicle control ([5]; HeLa, protein LRPPRC) | fold changes relative to vehicle control ([6]; HeLa, protein PRDX1) | fold changes relative to vehicle control ([7]; HeLa, protein C1QBP) | fold changes relative to vehicle control ([8]; protein NUP85, HeLa) | further results |
| --- | --- | --- | --- | --- | --- | --- | --- | --- | --- | --- | --- | --- | --- | --- | --- | --- | --- |
| Nc1nc2cccc(-c3ccccc3)c2n1Cc1ccc(Cl)c(Cl)c1 [compound 3] | 0.8 | 1 | 0.93 | 1.06 | 0.74 | 0.85 | 1 | 0.9 | 1.14 |  |  |  |  |  |  |  |  |
| Nc1nc2[nH]cc(CCc3ccc(C(=O)N[C@@H](CCC(=O)O)C(=O)O)cc3)c2c(=O)[nH]1 [PTX, pemetrexed] |  |  |  |  |  |  |  |  |  |  |  |  |  |  |  |  | fold changes relative to vehicle control [1]: 1.22; fold changes relative to vehicle control [2]: 0.98; fold changes relative to vehicle control [3]: 0.92; fold changes relative to vehicle control [4]: 0.87; fold changes relative to vehicle control [5]: 1.15; fold changes relative to vehicle control [6]: 1.05; fold changes relative to vehicle control [7]: 0.92; fold changes relative to vehicle control [8]: 0.9; fold changes relative to vehicle control [9]: 0.95 |
| Nc1nc2c(c(=O)[nH]1)N(C=O)C(CNc1ccc(C(=O)N[C@@H](CCC(=O)O)C(=O)O)cc1)CN2 (stereo partly drawn) [LEU, leucovorin] |  |  |  | 0.81 |  |  |  |  | 0.91 | 1.01 | 1.02 | 0.95 | 0.92 | 1.01 | 0.85 | 0.82 |  |
| CCCCCCOc1cccc(Cc2cnc(N)nc2N)c1 [compound 2] | 2.11 | 1.09 | 0.99 | 1.13 | 1.33 | 2.05 | 1.27 | 0.96 | 1.39 |  |  |  |  |  |  |  |  |
| NCCOCCOCC(=O)Nc1nc2ncc(CNc3ccc(C(=O)NC(CCC(=O)O)C(=O)O)cc3)nc2c(=O)[nH]1 (stereo not drawn) [compound 6] |  |  |  | 1.07 |  |  |  |  | 1.03 | 1.44 | 1 | 0.99 | 1.22 | 1.1 | 0.92 | 0.93 |  |
| CCCCCCOc1ccc(Cc2cnc(N)nc2N)cc1 [compound 1] | 1.47 | 0.97 | 1.06 | 1.07 | 0.92 | 1.24 | 1.12 | 0.93 | 0.93 |  |  |  |  |  |  |  |  |
| NCCCNc1ccc(C(=O)NC(CCC(=O)O)C(=O)O)cc1 (stereo not drawn) [compound 7] |  |  |  | 1 |  |  |  |  | 1.03 | 1.08 | 0.99 | 0.96 | 1.21 | 0.87 | 0.78 | 0.95 |  |

From paper PMC6199744, “Development of Chemical Proteomics for the Folateome and Analysis of the Kinetoplastid Folateome” (ACS Infectious Diseases, 2018)
